Assay results published in patent US12559750B2, “Methods and compositions for treatment of polycystic kidney disease” (Regulus Therapeutics Inc., priority 2021, dated 2026).
e = 2'-O-(2-methoxyethyl) (MOE); k = constrained ethyl (cEt); d = 2'-deoxy (DNA); m = 2'-O-methyl; f = 2'-fluoro

Assays:
Pcy/DBA mice = assay: Efficacy in Pcy/DBA mouse model of PKD, alone and with tolvaptan; format: in vivo; details: 0.3% Tolvaptan in chow alone (vehicle SC);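 also: dosing began at 6 weeks of age, with endpoints collected 7 days after the last dose and PBS-injected wild-type DBA/2J mice as the normal reference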
Procedure: The efficacy of RG-NG-1015 was also evaluated in the Pcy/DBA mouse model of PKD alone and in combination with tolvaptan.
As outlined in FIGS. 6A and 6B, five groups of male Pcy/DBA mice (n=13 per treatment group) were treated subcutaneously with PBS or RG-NG-1015 at 25, 5, 1, or 0.2 mg/kg once every two weeks (Q2W). Two groups of male Pcy/DBA mice (n=13 per group) were also treated with RG-NG-1015 at 50 mg/kg once every four weeks (Q4W) or at 12.5 mg/kg once weekly (QW). Another four groups of male Pcy/DBA mice (n=13 per group) were treated subcutaneously with PBS or RG-NG-1015 at 25, 5, or 1 mg/kg Q2W in combination with tolvaptan at 0.3% (w/w chow) ad libitum. A group of male WT-BDA/2J mice received subcutaneous injections of PBS Q2W was included in the study as a normal range reference. Mice were randomized into treatment groups at 5 weeks of age, and treatment started at 6 weeks of age for 17 weeks and were sacrificed 7 days after the final treatment. Kidney weight, body weight, kidney cyst index, urine Ngal-to-Creatinine ratio (Ngal/Cr) were measured.

AMPA-R = assay: [3H]AMPA radioligand binding assay on rat brain synaptic membranes; details: for % Inhibition @ Concentration 100 uM: Table 8 (3′-terminal nucleobase/sugar variants); for % Inhibition @ Concentration 0.1 uM: Table 8, 0.1 uM; for % Inhibition @ Concentration 1 uM: Table 8, 1 uM; for % Inhibition @ Concentration 10 uM: Table 8, 10 uM;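 as to all read-outs here: competition binding in which test compounds at rising concentrations displace [3H]AMPA from AMPA-R on rat brain synaptic membranes, with reduced bound radioligand as read-out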
Procedure: The activity of anti-miR-17 compounds was evaluated in a radioligand binding assay which measured the binding of the [^3H] AMPA ligand to the AMPA-R present on rat brain synaptic membranes, in the presence of increasing concentrations of anti-miR-17 compound, anti-miR-17 compounds with affinity for the AMPA-R will bind to and compete with the binding of the [^3H] AMPA ligand.
5.0 nM of the ligand [^3H] AMPA, 1.0 mM of the non-specific ligand L-Glutamic acid, and anti-miR compound at uM concentrations were incubated with synaptic membranes prepared from Wistar rat cerebral cortex for 90 minutes.
The compounds were tested in the radioligand binding assay described herein, to determine the ability of the anti-miR-17 compounds to and compete with the binding of the [3H] AMPA ligand.

AMPA-R (GluA1/GluA4) = target: T1, AMPA-R (GluA1/GluA4) (Homo sapiens, UniProt P42261+P48058); assay: Manual whole-cell patch clamp, ChanTest GluA1/GluA4 EZCells; format: cell-based
T1 construct: host or cells: ChanTest GluA1/GluA4 EZCells
T1 sequence (P42261 19-906): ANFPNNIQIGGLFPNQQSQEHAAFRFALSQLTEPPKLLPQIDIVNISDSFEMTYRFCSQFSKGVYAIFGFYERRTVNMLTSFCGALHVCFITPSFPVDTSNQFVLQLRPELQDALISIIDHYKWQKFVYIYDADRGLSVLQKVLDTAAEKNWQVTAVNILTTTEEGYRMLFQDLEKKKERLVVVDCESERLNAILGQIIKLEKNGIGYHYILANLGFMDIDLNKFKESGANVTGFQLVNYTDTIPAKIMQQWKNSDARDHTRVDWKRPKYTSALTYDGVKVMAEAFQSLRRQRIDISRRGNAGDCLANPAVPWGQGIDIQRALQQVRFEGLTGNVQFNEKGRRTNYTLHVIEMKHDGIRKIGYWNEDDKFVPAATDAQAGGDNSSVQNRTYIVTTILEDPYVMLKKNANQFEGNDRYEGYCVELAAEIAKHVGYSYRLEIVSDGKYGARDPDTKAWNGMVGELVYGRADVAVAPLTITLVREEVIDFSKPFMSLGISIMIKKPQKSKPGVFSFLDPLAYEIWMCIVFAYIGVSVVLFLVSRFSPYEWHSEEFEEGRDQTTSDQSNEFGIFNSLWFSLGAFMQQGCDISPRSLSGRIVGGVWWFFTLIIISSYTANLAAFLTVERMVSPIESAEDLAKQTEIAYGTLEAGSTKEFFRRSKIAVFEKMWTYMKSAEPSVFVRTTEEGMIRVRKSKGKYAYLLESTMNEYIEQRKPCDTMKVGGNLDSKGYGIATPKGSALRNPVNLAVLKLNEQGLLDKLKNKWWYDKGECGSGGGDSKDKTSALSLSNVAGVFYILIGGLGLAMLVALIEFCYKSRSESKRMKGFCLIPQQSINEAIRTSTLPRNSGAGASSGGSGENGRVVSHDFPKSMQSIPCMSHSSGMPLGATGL
T1 sequence (P48058 21-902): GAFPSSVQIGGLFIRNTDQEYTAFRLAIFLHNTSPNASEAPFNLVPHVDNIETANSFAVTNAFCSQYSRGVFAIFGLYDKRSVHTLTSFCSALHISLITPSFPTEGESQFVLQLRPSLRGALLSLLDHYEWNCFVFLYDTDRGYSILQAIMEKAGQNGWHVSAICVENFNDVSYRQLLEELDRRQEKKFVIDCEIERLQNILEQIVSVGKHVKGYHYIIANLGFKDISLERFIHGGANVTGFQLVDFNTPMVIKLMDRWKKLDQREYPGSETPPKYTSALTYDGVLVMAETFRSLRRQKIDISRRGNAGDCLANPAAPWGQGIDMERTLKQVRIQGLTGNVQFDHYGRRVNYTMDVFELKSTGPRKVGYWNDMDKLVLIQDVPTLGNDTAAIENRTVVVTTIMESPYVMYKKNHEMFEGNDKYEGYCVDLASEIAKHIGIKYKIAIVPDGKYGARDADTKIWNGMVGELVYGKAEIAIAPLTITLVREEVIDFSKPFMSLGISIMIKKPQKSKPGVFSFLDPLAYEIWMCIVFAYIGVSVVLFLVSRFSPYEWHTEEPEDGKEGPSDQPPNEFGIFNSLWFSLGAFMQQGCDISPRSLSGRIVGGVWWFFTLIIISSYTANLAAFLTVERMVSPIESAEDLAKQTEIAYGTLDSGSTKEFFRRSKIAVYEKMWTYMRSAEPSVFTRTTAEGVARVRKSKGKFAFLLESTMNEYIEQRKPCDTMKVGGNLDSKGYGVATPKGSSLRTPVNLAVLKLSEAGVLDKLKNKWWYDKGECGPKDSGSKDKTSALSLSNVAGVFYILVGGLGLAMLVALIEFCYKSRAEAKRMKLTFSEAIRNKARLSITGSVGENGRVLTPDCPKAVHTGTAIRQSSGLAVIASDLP
Procedure: To evaluate functional antagonism of anti-miR-17 oligonucleotides towards the AMPA-R, certain oligonucleotides were tested using the manual whole-cell patch clamp technique, which records membrane currents as a measure of AMPA-R activity.
Manual whole-cell patch clamp studies were performed by Metrion Biosciences (Cambridge, UK). Whole-cell voltage clamp experiments were performed at room temperature (18-21° C.) using an EPC10 patch clamp amplifier using Patchmaster software (HEKA Elektronik). Glass patch pipettes were fabricated from borosilicate glass capillaries (Harvard Apparatus) to resistances between 1.4 and 2.5 MΩ. Membrane currents were recorded using the whole-cell patch clamp technique. ChanTest® GluA1/GluA4 EZCells were clamped at a holding potential of −80 mV and membrane currents elicited by 10 μM(S)-AMPA delivered using a VC38 perfusion system (ALA Scientific Instruments). The […] current amplitude values were measured with each application of 10 μM(S)-AMPA. The fractional change of current amplitude produced by each concentration of compound was calculated relative to the control current (pre-compound) and expressed as percentage change (% inhibition) for each cell. RGLS4326 was tested in a separate study from all other compounds in Table 6.

miR-17 [1] = assay: miR-17 luciferase sensor assay in HeLa cells; format: cell-based; details: for EC50: HeLa cells, 18- to 24-hour transfection
Procedure: The in vitro potency of certain compounds was evaluated using a miR-17 luciferase sensor assay which uses a luciferase reporter vector for miR-17, with two fully complementary miR-17 binding sites in tandem in the 3′-UTR of the luciferase gene. HeLa cells were co-transfected with the luciferase reporter vector and an exogenous miR-17-expression vector that acted to repress the luciferase signal.

miR-17 [2] = assay: miR-17 PD-Sig in mouse kidney cell lines; format: cell-based
Procedure: The activity of certain compounds was evaluated using a mouse miR-17 Pharmacodynamic-Signature (miR-17 PD-Sig), which consists of the expression of 18 unique miR-17 target genes normalized by six reference housekeeping genes, to provide an unbiased and comprehensive assessment of miR-17 activity. The mouse miR-17 PD-Sig score was the calculated average of the 18 genes' individual log 2 fold changes (normalized by six housekeeping genes) compared to mock transfection (Lee et al., Nat. Commun., 2019, 10, 4148).
The PD-Sig for RGLS4326 in mIMCD3 cells (77.2, indicated by “*”) was not generated in this experiment; the value in Table 14 is that reported by Lee et al., Nat. Commun., 2019, 10, 4148. Blank cells in the table indicate that a compound was not tested in a particular cell line.

miR-17 [3] = assay: microRNA polysome shift assay (miPSA) in kidney of wild type mice; format: in vivo, mouse; parameters: scale not given here; details: seven days later
Procedure: In vivo potency was evaluated using the microRNA polysome shift assay (miPSA). This assay was used to determine the extent to which compounds directly engage the miR-17 target in the kidney in normal and PKD mice. The miPSA relies on the principle that active miRNAs bind to their mRNA targets in translationally active high molecular weight (HMW) polysomes, whereas the inhibited miRNAs reside in the low MW (LMW) polysomes. Treatment with anti-miR results in a shift of the microRNA from HMW polysomes to LMW polysomes. Thus, the miPSA provides a direct measurement of microRNA target engagement by a complementary anti-miR (Androsavich et al., Nucleic Acids Research, 2015, 44: e13).
Wild type mice were administered a single dose of 0.3 mg/kg, 3 mg/kg, or 30 mg/kg. Kidney tissue was collected seven days later and subjected to the miPSA. The mean displacement score for each treatment is shown in Table 15 (PBS, n=17; RGLS4326 30 mg/kg, n=10; all other treatments, n=4-5). The tested oligonucleotides displaced miR-17 from translationally active polysome (as measured by miPSA) in normal mouse kidneys.

[4] = system: KspCre/Pkd1F/RC (Pkd1-F/RC) mice; assay: Efficacy in Pkd1-F/RC mouse model of ADPKD; format: in vivo; details: 20 mg/kg SC on days 8, 10, 12, 15 of age
Procedure: Mice were sacrificed at 18 days of age, and kidney weight, body weight, cyst index, serum creatinine level, and blood urea nitrogen (BUN) level were measured. BUN level is a marker of kidney function. A higher BUN level correlates with poorer kidney function, thus a reduction in BUN level is an indicator of reduced kidney injury and damage and improved function. Statistical significance was calculated by one-way ANOVA with Dunnett's multiple correction.

mice = details: in vivo
Procedure: Each compound was tested in a single dose at 2000 mg/kg, and at escalating doses (100, 450, and 2000 mg/kg).

C57Bl/6J male mice = assay: ICV maximum tolerated dose study, Study 1; format: in vivo, mouse; details: for Mortality/total number of mice: 7-day
Procedure: Compounds (RG-NG-1017, RGLS4326, RG-NG-1001) were evaluated in a pilot maximum tolerated dose (MTD) study (discussed below). RG-NG-1017, RGLS4326 and RG-NG-1001 were initially evaluated at 4 dose-levels each. RG-NG-1017 was included for evaluation as a non-AMPA-R binding compound, as compared to RGLS4326 and RG-NG-1001, which bind AMPA-R. C57Bl/6J male mice (Jackson Laboratories), age 6-7 weeks, were used in this study. Mice were assigned randomly to treatment groups, and the study was blinded. Animals were allowed to acclimate for no less than 5 days and housed on a 12 hr light/dark cycle (lights on 7:00 AM). No more than 4 mice were house in each cage in a ventilated cage rack system. The diet consisted of standard rodent chow and water ad libitum.
The following parameters were used for this study: • 1. Route(s) of administration: intracerebroventricular (ICV) dosing of RG-NG-1017, RG-NG-1001, RGLS4326 • 2. Dose Volume(s): 4 μL • 3. Formulation(s): vehicle, Ca^2+ and Mg^2+ free dPBS • 4. Dose Frequency: Once • 5. Study duration: 8 Days • 6. Number of Groups: 3 • 7. Number of animals per group: (2-4 each group) • 8. Total number of animals: […]
For the ICV administration, mice were anesthetized and positioned for injections. The skin over the skull was incised, and a small hole was made in the skull above the target using a microdrill. The stereotactic coordinates were anteroposterior (AP), −0.4 mm; mediolateral (ML), +/−1.0-1.5 mm; dorsoventral (DV), −3.0 mm from the bregma for injection into both the right and left lateral cerebral ventricles (Hironaka et al, 2015). Animals were injected unilaterally with 4 μl into the right lateral cerebral ventricle. Compounds were injected over 1-2 min, and the needle was left in place for 0.5-1 min prior to withdrawal. The incision was closed with sutures, wound clips, or VetBond.
Following ICV treatment (Day 0), animals were monitored for 7 days in which daily health checks, body weight, and mortality was recorded. On Day 7, brain and kidney were collected and fixed (10% formalin) and stored pending histology.

Row | Compound | IC50 (AMPA-R; Experiment #1) | % Inhibition @ 0.1 uM (AMPA-R; Experiment #1, 0.1 uM) | % Inhibition @ 1 uM (AMPA-R; Experiment #1, 1 uM) | % Inhibition @ 10 uM (AMPA-R; Experiment #1, 10 uM) | % Inhibition @ 100 uM (AMPA-R; Experiment #1, 100 uM) | IC50 (AMPA-R; Experiment #2) | % Inhibition @ 0.1 uM (AMPA-R; Experiment #2, 0.1 uM) | % Inhibition @ 1 uM (AMPA-R; Experiment #2, 1 uM) | % Inhibition @ 10 uM (AMPA-R; Experiment #2, 10 uM) | % Inhibition @ 100 uM (AMPA-R; Experiment #2, 100 uM) | IC50 (AMPA-R; Experiment #3) | % Inhibition @ 0.1 uM (AMPA-R; Experiment #3, 0.1 uM) | IC50 (AMPA-R; Table 8) | % Inhibition @ Concentration 100 uM (AMPA-R) | % Inhibition @ Concentration 0.1 uM (AMPA-R) | % Inhibition @ Concentration 1 uM (AMPA-R) | % Inhibition @ Concentration 10 uM (AMPA-R) | % Inhibition on membrane currents evoked with 10 uM (s)-AMPA (Mean ± SD) (AMPA-R (GluA1/GluA4); 0.3 uM compound) | % Inhibition on membrane currents evoked with 10 uM (s)-AMPA (Mean ± SD) (AMPA-R (GluA1/GluA4); 3 uM compound) | Log2FC (37.5 nM) (miR-17 [1]) | further results
1 | Cc1ccccc1C(=O)Nc1ccc(C(=O)N2CCCC(O)c3cc(Cl)ccc32)c(C)c1 (centres unmarked) [Tolvaptan, tolvaptan, reference compound] |  |  |  |  |  |  |  |  |  |  |  |  |  |  |  |  |  |  |  |  | Mean Cystic Area (Pcy/DBA mice): 44.68%; Mean Cystic Area % Inhibition (Pcy/DBA mice): 29.2%; Mean KW/BW (Pcy/DBA mice): 59.3 mg/g; Mean KW/BW % Inhibition (Pcy/DBA mice): 44.9%; Mean Urine Ngal/Cr (Pcy/DBA mice): 8.73 mg/mg; Mean Urine Ngal/Cr % Inhibition (Pcy/DBA mice): 62.1%
2 | ASCSAMAFUFGFCMASCS [RG5124, reference compound] | > 100000 nM | 0.4% | 12.9% | −3.7% | −5.1% | > 100000 nM | −1.2% | 1.6% | −4.2% | 7.2% | > 100000 nM | 5.1% | ≥ 100000 nM | 10.1% | −8.6% | −0.6% | 4.4% | 14.1 ± 7.2% | 42.1 ± 9.4% | 0.40 | % Inhibition @ 1 uM (AMPA-R; Experiment #3, 1 uM): 9.3%; % Inhibition @ 10 uM (AMPA-R; Experiment #3, 10 uM): 16.1%; % Inhibition @ 100 uM (AMPA-R; Experiment #3, 100 uM): 23%; EC50 (miR-17 [2]; D52B5, mouse, PKD): 507 nM; miPSA Displacement Score, Mean (miR-17 [3]; single dose 30 mg/kg): 0.5935; BW/KW Ratio, Mean Difference vs. PBS [4]: 26.14; Serum BUN, Mean Difference vs. PBS [4]: +8.138; Serum Creatine, Mean Difference vs. PBS [4]: +0.07838; Mean BW/KW Ratio ([4]; sacrificed at 18 days): 91.75; Mean Serum BUN ([4]; sacrificed at 18 days): 50.61; Mean Serum Creatine ([4]; sacrificed at 18 days): 0.2403
3 | ASGSCMAFCFUFUMUSCS [RG-NG-1016] |  |  |  |  |  | > 100000 nM | 4.7% | 10.4% | 12.3% | 5.9% |  |  |  |  |  |  |  | 16.0 ± 6.2% | 27.1 ± 9.8% | 2.32 | functional antagonism towards AMPA-R relative to RGLS4326 (AMPA-R (GluA1/GluA4); in words): reduced functional antagonism towards AMPA-R; EC50 (miR-17 [1]): 20.3 nM; EC50 (miR-17 [2]; mIMCD3, mouse, Normal): 146 nM; miPSA Displacement Score, Mean (miR-17 [3]; single dose 3 mg/kg): 2.263; miPSA Displacement Score, Mean (miR-17 [3]; single dose 30 mg/kg): 1.134; miPSA Displacement Score, Mean (miR-17 [3]; single dose 0.3 m/kg): 1.892; CNS toxicity in high-dose mouse toxicity studies (mice): no CNS-toxicity were observed; CNS-related findings noted (mice; mouse, sc, 2000 mg/kg): No
4 | ASGSCSASCSUSUSUSGS [RG-NG-1001] | 170 nM | 41.1% | 76.2% | 89.1% | 91.3% | 190 nM | 42.2% | 68.3% | 90.1% | 93.5% | 100 nM | 59.4% | 150 nM | 102.9% | 41.9% | 81.3% | 99.3% | 80.5 ± 6.3% | 88.8 ± 4.5% |  | % Inhibition @ 1 uM (AMPA-R; Experiment #3, 1 uM): 84.8%; % Inhibition @ 10 uM (AMPA-R; Experiment #3, 10 uM): 94.6%; % Inhibition @ 100 uM (AMPA-R; Experiment #3, 100 uM): 96.6%; Mortality/total number of mice (C57Bl/6J male mice; single ICV 2.5 μg): 1/3; Mortality/total number of mice (C57Bl/6J male mice; single ICV 5 μg): 4/4; Mortality/total number of mice (C57Bl/6J male mice; single ICV 10 μg): 3/4; Mortality/total number of mice (C57Bl/6J male mice; single ICV 25 μg): 3/3; Mortality/total number of mice (C57Bl/6J male mice; single ICV 50 μg): 3/3; Mortality/total number of mice (C57Bl/6J male mice; single ICV 100 μg): 2/2; Mortality/total number of mice (C57Bl/6J male mice; single ICV 300 μg): 2/2; Mortality/total number of mice (C57Bl/6J male mice; single ICV 600 μg): 2/2; MTD (C57Bl/6J male mice; single ICV, C57Bl/6J mice, predicted from the study): under 2.5 μg; CNS toxicity in high-dose mouse toxicity studies (mice): ataxia, lethargy
5 | GSCEAECETEGSTEADASGSCMAFCFUFUMUSGS (GCACTGTAAGCACUUUG; sugars from the 5' end keeeekedkkmfffmkk, backbone and methylation of C not given here) [RG-NG-1032] |  |  |  |  |  |  |  |  |  |  |  |  | 1170 nM | 92% | 24.3% | 43.8% | 78.3% |  |  | 3.85 | EC50 (miR-17 [1]): < 1 nM
